Test results reported in patent US11840535B2, “Alkynyl(hetero)aromatic compound for inhibiting protein kinase activity” (Shenzhen TargetRx, Inc., priority 2018, dated 2023).

Legend:
[1] = molecular target: ABL^T315I (Homo sapiens (Human), UniProt P00519, T315I); assay: Biochemical kinase analysis, ABL T315I
Description: (§1) Reagents and materials: ABL (ThermoFisher, Cat. No PV3585), ABL^T315I (Thermo Fisher, Cat. No. PR7429B), ATP (Sigma, Cat. No. A7699-1G), DMSO (Sigma, Cat. No. D2650), 96-well plate (Corning, Cat. No. 3365), 384-well plate (Greiner, Cat. No. 784076), buffer solution (Thermo Fisher, Cat. No. PR4876B).
(§2) Compound formulation: The test compounds were dissolved in DMSO to prepare a 20 mM stock solution. Before use, the compounds were diluted in DMSO to 0.1 mM, and diluted into 11 concentrations with a 3-fold gradient. When addition, diluentions of 4-fold final concentration were then made with buffer solution.
(§3) Kinase assay method: After preparing the buffer, the enzyme was mixed with pre-formulated and diluted compounds of different concentrations in duplicate for each concentration, and placed at room temperature for 30 minutes. The corresponding substrate and ATP were added thereto, and reacted at room temperature for 60 minutes (both a negative and a positive control were set). After the reaction, antibody was added for detection, Envision detection was carried out after 60 minutes incubation at room temperature, and data was collected. Data analysis and fitting were made according to XLfit5 software, wherein, A represents IC50≤5 nM, B represents IC50 is 5-50 nM, C represents IC50 is 50-100 nM, D represents IC50>100 nM.

[2] = test system: Ba/F3 parental cells; assay: Cell proliferation analysis, Ba/F3 parental; assay type: cell-based; conditions: Mus musculus, BaF3, 72 h; 8 ng/ml IL-3, 3 days, CellTiter-Glo
Description: (§4) The inhibitory effect of the example compounds on Ba/F3, Ba/F3 Bcr-Abl T315I cell activity was determined.
(§5) Materials and reagents: RPMI-1640 medium (GIBCO, Catalog No. A10491-01), fetal bovine serum (GIBCO, Catalog No. 10099141), antibiotics (Penicillin-Streptomycin), IL-3 (PeproTech), promycin; cell lines: Ba/F3, Ba/F3 Bcr-Abl T315I (Purchased from American type culture collection, ATCC), live cell detection kit […] (Promega, Catalog No. G7572), 96-well black wall transparent flat bottom cell culture plate (Corning, Catalog No. 3340).
(§6) Test method: 1. Preparation of cell plate: Ba/F3, Ba/F3 Bcr-Abl T315I cells were respectively seeded in 96-well plates, and 8 ng/ml IL-3 was added to the Ba/F3 cells, and the cell plates were placed in a carbon dioxide incubator and cultured overnight. 2. The test compounds were dissolved in DMSO, 9 compound concentrations were made with a 3.16-fold gradient dilution in triplicate. 3. Treatment of the cells with compounds: The compounds were transferred to the cell plate with a starting concentration of 10 μM. The cell plate was placed in a carbon dioxide incubator for 3 days. 4. Detection: CellTiter-Glo agent was added to the cell plate, and incubated at room temperature for 30 minutes to stabilize the luminous signal. PerkinElmer Envision multi-label analyzer was used for reading, wherein A represents […], B represents IC50 is 10-20 nM, C represents IC50 is 20-50 nM, D represents IC50 is 50-1000 nM, E represents IC50>1000 nM.

[3] = molecular target: ABL (Homo sapiens (Human), UniProt P00519); assay: Biochemical kinase analysis, ABL
Description: as §1, §2, §3

[4] = Metabolic stability evaluation, human liver microsome assay; assay type: in vitro ADME; conditions: pH 7.4, human liver microsomes 0.5 mg/mL, compound 1 μM, 37° C.; for microsomal CLint at 1 μM: read-out: HLM Clint; for half-life at 1 μM: read-out: HLM T1/2
Description: Microsome assay: human liver microsomes: 0.5 mg/mL, Xenotech; coenzyme (NADPH/NADH): 1 mM, Sigma Life Science; magnesium chloride: 5 mM, 100 mM phosphate buffer (pH is 7.4).
Preparation of stock solution: Powder of the example compounds and the reference compound were accurately weighed, and dissolved to 5 mM with DMSO, respectively.
Preparation of phosphate buffer (100 mM, pH7.4): Pre-formulated 150 mL 0.5 M potassium dihydrogen phosphate and 700 mL 0.5 M dipotassium hydrogen phosphate were mixed, then the pH of the mixture was adjusted to 7.4 with 0.5 M dipotassium hydrogen phosphate. Before use, 5-fold dilution was made with ultra-pure water, and magnesium chloride was added to afford phosphate buffer (100 mM), which containing 100 mM potassium phosphate, 3.3 mM magnesium chloride, and pH is 7.4.
NADPH regeneration system solution (containing 6.5 mM NADP, 16.5 mM G-6-P, 3 U/mL G-6-P D, 3.3 mM magnesium chloride) was prepared and placed on wet ice before use.
Preparation of stop solution: Acetonitrile solution containing 50 ng/mL propranolol hydrochloride and 200 ng/mL tolbutamide (internal standard). 25057.5 μL phosphate buffer (pH 7.4) was taken into a 50 mL centrifuge tube, and 812.5 μL human liver microsome was added respectively, mixed well to afford liver microsome diluention with a protein concentration of 0.625 mg/mL.
Incubation of the sample: The stock solutions of the corresponding compounds were diluted to 0.25 mM with an aqueous solution containing 70% acetonitrile as working solutions for use. 398 μL of human liver microsome diluention was taken and added to a 96-well incubation plate (N=2), respectively, and 2 μL of 0.25 mM working solutions were then added respectively, and mixed well.
Determination of metabolic stability: 300 μL of pre-chilled stop solution was added to each well of a 96-well deep well plate and the plate was placed on ice as a stop plate. The 96-well incubation plate and NADPH regeneration system were placed in a 37° C. water bath, shook at 100 rpm, and pre-incubated for 5 min. 80 μL of incubation solution was taken from each well of the incubation plate and added to the stop plate, mixed well, and 20 μL of NADPH regeneration system solution was supplemented, the resulted solution was considered as sample at 0 min. Then 80 μL of NADPH regeneration system solution was added to each well of the incubation plate to start the reaction and started timing. The reaction concentration of the corresponding compound is 1 μM, and the protein concentration is 0.5 mg/mL. 100 μL reaction solution was taken at 10, 30, 90 min of reaction, respectively, and added into stop plate, the reaction was stopped with 3 min vortex. The stop plate was centrifuged at 5000×g, 4° C. for 10 min. 100 μL of supernatant was taken to a 96-well plate where 100 μL of distilled water was added in advance, mixed well, sample analysis was carried out by LC-MS/MS.
Data analysis: LC-MS/MS system was used to detect peak area of corresponding compound and internal standard, peak area ratio of compound to internal standard was calculated. The slope was measured by plotting the natural logarithm of the remaining percentage of the compound versus time, and t1/2 and CLint were calculated according to the following formula, wherein V/M means 1/protein concentration.

[5] = test system: Ba/F3 Bcr-Abl T315I cells; assay: Cell proliferation analysis, Ba/F3 Bcr-Abl T315I; assay type: cell-based; conditions: for IC50: Mus musculus, BaF3, 72 h, 3 days, CellTiter-Glo; for Selectivity [Ba/F3 (parental/Bcr-Abl ^T315I)]: ratio of Ba/F3 parental to Ba/F3 Bcr-Abl T315I
Description: as §4, §5, §6

| SMILES | IC50 [1] | IC50 [2] | IC50 [3] | microsomal CLint at 1 μM [4] | half-life at 1 μM [4] | IC50 [5] | Selectivity [Ba/F3 (parental/Bcr-Abl ^T315I)] [5] |
| --- | --- | --- | --- | --- | --- | --- | --- |
| CCn1cc(C#Cc2cc(NC(=O)c3cccc(C(F)(F)F)c3)ccc2C)c2c(N)ncnc21 [Example 17, N-(3-((4-amino-7-ethyl-7H-pyrrolo[2,3-d]pyrimidin-5-yl)ethynyl)-4-methylphenyl)-3-(trifluoromethyl)benzamide] | ≤ 5 nM | > 1000 nM | ≤ 5 nM | 17.2 µL/min/mg | 1.34 h | 10 to 20 nM | 50~100 |
| Cc1cn(-c2cc(NC(=O)c3ccc(C)c(C#Cc4cn(C(C)C)c5ncnc(N)c45)c3)cc(C(F)(F)F)c2)cn1 [Example 12, 3-((4-amino-7-isopropyl-7H-pyrrolo[2,3-d]pyrimidin-5-yl)ethynyl)-4-methyl-N-(3-(4-methyl-1H-imidazol-1-yl)-5-(trifluoromethyl)phenyl)benzamide] | 5 to 50 nM | > 1000 nM | 5 to 50 nM | 20.9 µL/min/mg | 1.11 h | 20 to 50 nM | 150~500 |
| Cc1ccc(C(=O)Nc2ccc(CN3CCN(C)CC3)c(C(F)(F)F)c2)cc1C#Cc1cn([C@H]2CC[C@H](O)CC2)c2ncnc(N)c12 [Example 22, 3-((4-amino-7-((1r,4r)-4-hydroxycyclohexyl)-7H-pyrrolo[2,3-d]pyrimidin-5-yl)ethynyl)-4-methyl-N-(4-((4-methylpiperazin-1-yl)methyl)-3-(trifluoromethyl)phenyl)benzamide] | ≤ 5 nM | > 1000 nM | ≤ 5 nM | 6.1 µL/min/mg | 3.8 h | 20 to 50 nM | 0~50 |
| CCn1cc(C#Cc2cc(C(=O)Nc3cccc(C(F)(F)F)c3)ccc2C)c2c(N)ncnc21 [Example 6, 3-((4-amino-7-ethyl-7H-pyrrolo[2,3-d]pyrimidin-5-yl)ethynyl)-4-methyl-N-(3-(trifluoromethyl)phenyl)benzamide] | ≤ 5 nM | > 1000 nM | ≤ 5 nM | 3.5 µL/min/mg | 6.58 h | 10 to 20 nM | 100~150 |
| CCn1cc(C#Cc2cc(NC(=O)c3ccc(CN4CCN(C)CC4)c(C(F)(F)F)c3)ccc2C)c2c(N)ncnc21 [Example 18, N-(3-((4-amino-7-ethyl-7H-pyrrolo[2,3-d]pyrimidin-5-yl)ethynyl)-4-methylphenyl)-4-((4-methylpiperazin-1-yl)methyl)-3-(trifluoromethyl)benzamide] | ≤ 5 nM | > 1000 nM | ≤ 5 nM | 17 µL/min/mg | 1.36 h | ≤ 10 nM | 100~150 |
| Cc1ccc(NC(=O)c2ccc(CN3CCN(C)CC3)c(C(F)(F)F)c2)cc1C#Cc1cn([C@H]2CC[C@H](O)CC2)c2ncnc(N)c12 [Example 25, N-(3-((4-amino-7-((1r,4r)-4-hydroxycyclohexyl)-7H-pyrrolo[2,3-d]pyrimidin-5-yl)ethynyl)-4-methylphenyl)-4-((4-methylpiperazin-1-yl)methyl)-3-(trifluoromethyl)benzamide] | ≤ 5 nM | > 1000 nM | ≤ 5 nM | 7.6 µL/min/mg | 3.03 h | 20 to 50 nM | 0~50 |
| CCn1cc(C#Cc2cc(C(=O)Nc3ccc(CN4CCN(C)CC4)c(C(F)(F)F)c3)ccc2C)c2c(N)ncnc21 [Example 5, 3-((4-amino-7-ethyl-7H-pyrrolo[2,3-d]pyrimidin-5-yl)ethynyl)-4-methyl-N-(4-((4-methylpiperazin-1-yl)methyl)-3-(trifluoromethyl)phenyl)benzamide] | ≤ 5 nM | 50 to 1000 nM | ≤ 5 nM | 19.9 µL/min/mg | 1.16 h | ≤ 10 nM | 100~150 |
| Cc1ccc(C(=O)Nc2ccc(CN3CCN(C)CC3)c(C(F)(F)F)c2)cc1C#Cc1cn(C(C)C)c2ncnc(N)c12 [Example 15, 3-((4-amino-7-isopropyl-7H-pyrrolo[2,3-d]pyrimidin-5-yl)ethynyl)-4-methyl-N-(4-((4-methylpiperazin-1-yl)methyl)-3-(trifluoromethyl)phenyl)benzamide] | ≤ 5 nM | > 1000 nM | ≤ 5 nM | 11.8 µL/min/mg | 1.95 h | 20 to 50 nM | 0~50 |
